In paper PMC5540273, “Progress towards a public chemogenomic set for protein kinases and a call for contributions” (PLoS ONE, 2017) one finds inhibition data, which are given here for 5 molecules.

Common to all, as to experiment: KINOMEscan competition binding
One assay has as its target CAMK1B (Homo sapiens, UniProt Q6P2M8). To be noted: read-out: %Inh CAMK1B.
Another assay deals with KIT-autoinhibited (Homo sapiens, UniProt P10721). To be noted: read-out: %Inh KIT-autoinhibited.
The target of another assay is T1, GRK3 (Homo sapiens, UniProt P35626).
T1 sequence (P35626 1-688): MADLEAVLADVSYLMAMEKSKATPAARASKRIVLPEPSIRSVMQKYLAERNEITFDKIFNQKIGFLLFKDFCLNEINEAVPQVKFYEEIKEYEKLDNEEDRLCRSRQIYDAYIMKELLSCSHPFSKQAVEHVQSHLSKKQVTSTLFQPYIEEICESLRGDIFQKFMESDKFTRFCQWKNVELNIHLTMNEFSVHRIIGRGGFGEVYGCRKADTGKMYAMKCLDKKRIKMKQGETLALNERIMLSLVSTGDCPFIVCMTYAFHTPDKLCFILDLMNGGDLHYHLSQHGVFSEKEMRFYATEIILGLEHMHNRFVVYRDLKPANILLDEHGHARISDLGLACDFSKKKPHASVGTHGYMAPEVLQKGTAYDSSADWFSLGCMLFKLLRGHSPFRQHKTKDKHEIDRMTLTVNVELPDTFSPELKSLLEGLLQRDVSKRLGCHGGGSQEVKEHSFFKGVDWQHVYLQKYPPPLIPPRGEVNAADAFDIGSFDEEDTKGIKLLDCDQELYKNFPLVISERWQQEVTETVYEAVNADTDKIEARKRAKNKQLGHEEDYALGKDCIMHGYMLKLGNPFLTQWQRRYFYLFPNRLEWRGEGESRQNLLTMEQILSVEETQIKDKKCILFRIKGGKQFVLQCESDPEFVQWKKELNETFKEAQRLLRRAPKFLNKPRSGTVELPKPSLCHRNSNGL
To be noted: read-out: %Inh GRK3.

A further assay has as its target T2, EPHB2 (Homo sapiens, UniProt P29323).
T2 sequence (P29323 19-1055): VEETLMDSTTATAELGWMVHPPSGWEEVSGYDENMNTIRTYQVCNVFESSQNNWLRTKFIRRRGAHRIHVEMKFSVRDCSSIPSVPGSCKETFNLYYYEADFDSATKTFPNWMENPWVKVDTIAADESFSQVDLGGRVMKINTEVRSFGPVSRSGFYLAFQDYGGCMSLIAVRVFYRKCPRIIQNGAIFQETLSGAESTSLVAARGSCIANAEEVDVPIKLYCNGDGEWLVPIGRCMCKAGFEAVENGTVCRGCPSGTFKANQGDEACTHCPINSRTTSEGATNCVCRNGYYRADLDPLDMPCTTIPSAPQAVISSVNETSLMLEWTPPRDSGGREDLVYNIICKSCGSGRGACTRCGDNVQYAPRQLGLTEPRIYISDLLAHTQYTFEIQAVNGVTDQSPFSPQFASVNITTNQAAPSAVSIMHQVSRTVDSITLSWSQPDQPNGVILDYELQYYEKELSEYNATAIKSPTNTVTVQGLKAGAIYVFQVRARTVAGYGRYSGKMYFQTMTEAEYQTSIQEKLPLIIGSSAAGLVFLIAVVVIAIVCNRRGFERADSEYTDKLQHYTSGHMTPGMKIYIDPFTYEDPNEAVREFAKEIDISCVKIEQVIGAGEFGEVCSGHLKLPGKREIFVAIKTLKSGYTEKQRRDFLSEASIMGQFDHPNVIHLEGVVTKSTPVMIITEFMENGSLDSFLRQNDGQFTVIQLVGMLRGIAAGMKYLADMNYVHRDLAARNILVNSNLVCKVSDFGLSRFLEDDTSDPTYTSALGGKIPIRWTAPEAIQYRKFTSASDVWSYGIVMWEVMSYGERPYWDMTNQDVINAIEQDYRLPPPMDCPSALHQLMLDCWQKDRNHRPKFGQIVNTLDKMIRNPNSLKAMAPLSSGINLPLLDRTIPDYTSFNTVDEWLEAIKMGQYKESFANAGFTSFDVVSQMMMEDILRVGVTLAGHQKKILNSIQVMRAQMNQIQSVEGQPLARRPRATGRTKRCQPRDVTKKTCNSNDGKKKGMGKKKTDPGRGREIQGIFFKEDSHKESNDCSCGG
To be noted: read-out: %Inh EPHB2.

In the next assay the target is T3, CSF1R-autoinhibited (Homo sapiens, UniProt P07333).
T3 sequence (P07333 539-972 limits assumed): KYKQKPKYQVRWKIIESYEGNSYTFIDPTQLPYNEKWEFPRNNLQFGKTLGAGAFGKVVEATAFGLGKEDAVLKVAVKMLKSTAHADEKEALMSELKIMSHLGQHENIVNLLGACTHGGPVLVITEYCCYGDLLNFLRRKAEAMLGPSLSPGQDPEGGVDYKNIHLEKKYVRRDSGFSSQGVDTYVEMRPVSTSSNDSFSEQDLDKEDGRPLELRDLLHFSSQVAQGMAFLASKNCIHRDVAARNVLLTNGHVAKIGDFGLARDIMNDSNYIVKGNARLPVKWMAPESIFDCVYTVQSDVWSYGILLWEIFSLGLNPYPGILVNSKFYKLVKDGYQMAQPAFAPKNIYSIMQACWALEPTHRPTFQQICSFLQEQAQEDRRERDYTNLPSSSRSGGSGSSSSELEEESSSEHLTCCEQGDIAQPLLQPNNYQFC
To be noted: read-out: %Inh CSF1R-autoinhibited.

SMILES strings stand for the structures.

KIT-autoinhibited, sequence (P10721 546-976 limits assumed): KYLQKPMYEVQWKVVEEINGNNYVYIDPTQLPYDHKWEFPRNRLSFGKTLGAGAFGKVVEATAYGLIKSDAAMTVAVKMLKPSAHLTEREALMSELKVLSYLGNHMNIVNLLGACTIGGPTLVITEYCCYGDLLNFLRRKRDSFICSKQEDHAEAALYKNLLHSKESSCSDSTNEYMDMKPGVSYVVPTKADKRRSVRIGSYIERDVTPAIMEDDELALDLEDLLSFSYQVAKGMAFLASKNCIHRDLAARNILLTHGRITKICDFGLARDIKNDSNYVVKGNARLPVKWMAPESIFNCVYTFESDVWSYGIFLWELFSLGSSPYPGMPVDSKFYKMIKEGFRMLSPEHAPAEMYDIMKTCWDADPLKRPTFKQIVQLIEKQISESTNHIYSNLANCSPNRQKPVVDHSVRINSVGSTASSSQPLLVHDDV
CAMK1B, sequence (Q6P2M8 whole entry): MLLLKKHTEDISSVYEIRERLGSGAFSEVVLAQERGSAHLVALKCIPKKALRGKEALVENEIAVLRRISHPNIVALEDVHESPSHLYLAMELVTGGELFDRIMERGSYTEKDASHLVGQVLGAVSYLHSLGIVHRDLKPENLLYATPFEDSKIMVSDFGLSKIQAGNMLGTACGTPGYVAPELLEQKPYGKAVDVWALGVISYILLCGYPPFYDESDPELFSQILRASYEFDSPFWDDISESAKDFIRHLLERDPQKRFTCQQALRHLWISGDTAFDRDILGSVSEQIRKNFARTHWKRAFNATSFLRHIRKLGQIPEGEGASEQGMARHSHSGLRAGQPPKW

For `Cn1cc(-c2cnc(N)c3c(-c4ccc5c(c4)CCN5C(=O)Cc4ccccc4)csc23)cn1` [UNC10225012A], the inhibition at 1 µM on CAMK1B was determined as 0%; on KIT-autoinhibited it was 32%; at GRK3, 0%; at EPHB2, 2%; at CSF1R-autoinhibited it was 39%.
Turning to `CS(=O)(=O)Cc1ccc(Nc2nccc(-c3c(-c4cccc(NC(=O)C5CCCCC5)c4)nn4ncccc34)n2)cc1` [UNC10225159A], the inhibition at 1 µM was determined as 0% on CAMK1B; 14% at KIT-autoinhibited; 0% at GRK3; 3% at EPHB2; 35% at CSF1R-autoinhibited.
Regarding `Cc1ccc(NC(=O)Nc2cccc(C(F)(F)F)c2)cc1` [UNC10225187A], the inhibition at 1 µM on CAMK1B turned out to be 0%; on KIT-autoinhibited, 3%; at GRK3, 0%; at EPHB2 it was 3%; at CSF1R-autoinhibited, 0%.
Regarding `COc1cccc(OC)c1C(=O)Nc1cccc(-c2nn3ccccc3c2-c2ccnc(Nc3cccc(F)c3)n2)c1` [UNC10225310A], the inhibition at 1 µM on CAMK1B came to 0%; at KIT-autoinhibited it was 11%; at GRK3, 0%; on EPHB2, 0%; on CSF1R-autoinhibited it was 4%.
Consider `O=c1cc(N2CCOCC2)nc2n(Cc3cccc(Cl)c3Cl)c(C3CC3)nn12` [UNC10225469A], for which the inhibition at 1 µM at CAMK1B turned out to be 0%; on KIT-autoinhibited, 15%; on GRK3, 0%; on EPHB2, 0%; at CSF1R-autoinhibited, 0%.
